What all share (format): cell-based
One assay relates to HeLa-MaTu-ADR. The assay is described as follows: Proliferation assay (crystal violet), HeLa-MaTu-ADR. The conditions noted are these: 96 h, 4 days, read-out: Inhibition of proliferation IC50 HeLa-MaTu-ADR. As to the method:
(§1) Cultivated tumor cells (cells were ordered from ATCC, except HeLa-MaTu and HeLa-MaTu-ADR, which were ordered from EPO-GmbH, Berlin) were plated at a density of 1000 to 5000 cells/well, depending on the growth rate of the respective cell line, in a 96-well multititer plate in 200 μL of their respective growth medium supplemented 10% fetal calf serum. After 24 hours, the cells of one plate (zero-point plate) were stained with crystal violet (see below), while the medium of the other plates was replaced by fresh culture medium (200 μl), to which the test substances were added in various concentrations (0 μM, as well as in the range of 0.001-10 μM; the final concentration of the solvent dimethyl sulfoxide was 0.5%). The cells were incubated for 4 days in the presence of test substances. Cell proliferation was determined by staining the cells with crystal violet: the cells were fixed by adding 20 μl/measuring point of an 11% glutaric aldehyde solution for 15 minutes at room temperature. After three washing cycles of the fixed cells with water, the plates were dried at room temperature. The cells were stained by adding 100 μl/measuring point of a 0.1% crystal violet solution (pH 3.0). After three washing cycles of the stained cells with water, the plates were dried at room temperature. The dye was dissolved by adding 100 μl/measuring point of a 10% acetic acid solution. Absorption was determined by photometry at a wavelength of 595 nm. The change of cell number, in percent, was calculated by normalization of the measured values to the absorption values of the zero-point plate (=0%) and the absorption of the untreated (0 μm) cells (=100%). The IC50 values were determined by means of a 4 parameter fit.

The next assay relates to NCI-H460. The assay is described as follows: Proliferation assay (crystal violet), NCI-H460. The conditions noted are these: Homo sapiens, 96 h; NCI-H460, 4 days; read-out: Inhibition of proliferation IC50 NCI-H460. How it is done: as §1
In another assay the test system is DU145. The assay is described as follows: Proliferation assay (crystal violet), DU145. The conditions noted are these: Homo sapiens, DU-145, 96 h; DU145, 4 days; read-out: Inhibition of proliferation IC50 DU145. How it is done: as §1
Another assay deals with Caco2. The assay is described as follows: Proliferation assay (crystal violet), Caco2. The conditions noted are these: Homo sapiens, Caco-2, 96 h; Caco2, 4 days; read-out: Inhibition of proliferation IC50 Caco2. As to the method:
as §1

The subject of another assay is B16F10. The assay is described as follows: Proliferation assay (crystal violet), B16F10. The note with it: Mus musculus, B16-F10, 96 h; B16F10, 4 days; read-out: Inhibition of proliferation IC50 B16F10. How it is done: as §1

Consider `CCc1ccccc1NC(=O)c1c(C)nsc1Nc1ccnc(C#N)n1` [Example 6, 5-[(2-Cyanopyrimidin-4-yl)amino]-N-(2-ethylphenyl)-3-methyl-1,2-thiazole-4-carboxamide], for which the IC50 in the assay on HeLa-MaTu-ADR worked out at 1900 nM; in the assay on NCI-H460, 2100 nM; in the assay with DU145, 3000 nM; with Caco2 it was 2300 nM; with B16F10 it was 2300 nM.

As to `CCc1ccccc1NC(=O)c1c(C)nsc1Nc1cnc2ccccc2n1` [Example 19, N-(2-Ethylphenyl)-3-methyl-5-(quinoxalin-2-ylamino)-1,2-thiazole-4-carboxamide], the IC50 in the assay with HeLa-MaTu-ADR was found to be 410 nM; with NCI-H460, 1500 nM; in the assay on DU145 it was 2500 nM; in the assay on Caco2, 970 nM; with B16F10 it was 1800 nM.

Take `COc1ccc(NC(=O)c2c(C)nsc2Nc2cnc3cccc(C)c3n2)cn1` [Example 22, N-(6-methoxypyridin-3-yl)-3-methyl-5-[(8-methylquinoxalin-2-yl)amino]-1,2-thiazole-4-carboxamide]: the IC50 with HeLa-MaTu-ADR turned out to be 760 nM; in the assay with NCI-H460 it was 790 nM; with DU145 it was 2200 nM; with Caco2 it was 1600 nM; in the assay on B16F10 it was 950 nM.

In the case of `COc1ccc(NC(=O)c2c(C)nsc2Nc2cnc3cc(Cl)ccc3n2)cn1` [Example 23, 5-[(6-Chloroquinoxalin-2-yl)amino]-N-(6-methoxypyridin-3-yl)-3-methyl-1,2-thiazole-4-carboxamide], the IC50 in the assay on HeLa-MaTu-ADR is 2700 nM; with NCI-H460, 2200 nM; in the assay with DU145 it was 9400 nM; with Caco2, 2400 nM; in the assay with B16F10, 8400 nM.

Turning to `Cc1nsc(Nc2cc(C#N)ccn2)c1C(=O)Nc1ccc(F)c(F)c1` [Example 27, 5-[(4-Cyanopyridin-2-yl)amino]-N-(3,4-difluorophenyl)-3-methyl-1,2-thiazole-4-carboxamide], the IC50 turned out to be 240 nM in the assay with HeLa-MaTu-ADR; 220 nM in the assay on NCI-H460; 350 nM with DU145; 450 nM in the assay on Caco2; 220 nM in the assay with B16F10.

As for `Cc1nsc(Nc2ccc(C#N)cn2)c1C(=O)Nc1ccc(F)c(F)c1` [Example 28, 5-[(5-Cyanopyridin-2-yl)amino]-N-(3,4-difluorophenyl)-3-methyl-1,2-thiazole-4-carboxamide], the IC50 in the assay on HeLa-MaTu-ADR was 120 nM; with NCI-H460, 99 nM; in the assay with DU145, 320 nM; in the assay on Caco2, 210 nM; in the assay on B16F10 it was 130 nM.

As for `CCc1ccccc1NC(=O)c1c(C)nsc1Nc1cnc2cccc(C)c2n1` [Example 33, N-(2-Ethylphenyl)-3-methyl-5-[(8-methylquinoxalin-2-yl)amino]-1,2-thiazole-4-carboxamide], the IC50 in the assay on HeLa-MaTu-ADR worked out at 850 nM; in the assay with NCI-H460, 1200 nM; in the assay on DU145, 1300 nM; in the assay with Caco2 it was 740 nM; in the assay with B16F10 it was 1400 nM.

Take `CCc1ccccc1NC(=O)c1c(C)nsc1Nc1nc(C)nc2ccccc12` [Example 35, N-(2-Ethylphenyl)-3-methyl-5-[(2-methylquinazolin-4-yl)amino]-1,2-thiazole-4-carboxamide]: the IC50 amounted to 610 nM with HeLa-MaTu-ADR; 1600 nM in the assay with NCI-H460; 2400 nM in the assay on DU145; 1600 nM with Caco2; 1700 nM with B16F10.

Turning to `Cc1nsc(Nc2cnc3ccccc3n2)c1C(=O)Nc1ccc(Cl)c(F)c1` [Example 40, N-(4-Chloro-3-fluorophenyl)-3-methyl-5-(quinoxalin-2-ylamino)-1,2-thiazole-4-carboxamide], the IC50 is 330 nM with HeLa-MaTu-ADR; 290 nM with NCI-H460; 590 nM in the assay on DU145; 470 nM in the assay with Caco2; 440 nM in the assay on B16F10.

On to `CCc1ccccc1NC(=O)c1c(C)nsc1Nc1cnc2ccc(Cl)cc2n1` [Example 41, 5-[(7-Chloroquinoxalin-2-yl)amino]-N-(2-ethylphenyl)-3-methyl-1,2-thiazole-4-carboxamide], for which the IC50 was 640 nM in the assay with HeLa-MaTu-ADR; 350 nM with NCI-H460; 750 nM with DU145; 170 nM in the assay on Caco2; 680 nM in the assay on B16F10.

For `COc1ccc(NC(=O)c2c(C)nsc2Nc2cnc3c(F)c(F)ccc3n2)cn1` [Example 43, 5-[(5,6-Difluoroquinoxalin-2-yl)amino]-N-(6-methoxypyridin-3-yl)-3-methyl-1,2-thiazole-4-carboxamide], the IC50 was 260 nM in the assay with HeLa-MaTu-ADR; 130 nM in the assay with NCI-H460; 420 nM in the assay on DU145; 380 nM with Caco2; 230 nM in the assay with B16F10.

In the case of `COc1ccc(NC(=O)c2c(C)nsc2Nc2cnc3cc(C(F)(F)F)ccc3n2)cn1` [Example 45, N-(6-Methoxypyridin-3-yl)-3-methyl-5-{[6-(trifluoromethyl)quinoxalin-2-yl]amino}-1,2-thiazole-4-carboxamide], the IC50 in the assay with HeLa-MaTu-ADR is 300 nM; in the assay on NCI-H460, 100 nM; in the assay with DU145, 460 nM; in the assay on Caco2 it was 380 nM; in the assay on B16F10, 190 nM.

Regarding `Cc1nsc(Nc2cnc3cc(F)ccc3n2)c1C(=O)Nc1ccc(F)c(F)c1` [Example 46, N-(3,4-Difluorophenyl)-5-[(6-fluoroquinoxalin-2-yl)amino]-3-methyl-1,2-thiazole-4-carboxamide], the IC50 in the assay on HeLa-MaTu-ADR was 110 nM; in the assay on NCI-H460, 86 nM; with DU145 it was 180 nM; with Caco2, 110 nM; in the assay with B16F10 it was 120 nM.

With `COc1ccc(NC(=O)c2c(C)nsc2Nc2nc3c(C(F)(F)F)cccc3s2)cc1F` [Example 47, N-(3-Fluoro-4-methoxyphenyl)-3-methyl-5-{[4-(trifluoromethyl)-1,3-benzothiazol-2-yl]amino}-1,2-thiazole-4-carboxamide], the IC50 with HeLa-MaTu-ADR came to 83 nM; with NCI-H460, 180 nM; in the assay on DU145, 49 nM; with Caco2, 360 nM; in the assay on B16F10 it was 110 nM.

Consider `COc1ccc(NC(=O)c2c(C)nsc2Nc2nc3c(C(F)(F)F)cccc3s2)cn1` [Example 48, N-(6-Methoxypyridin-3-yl)-3-methyl-5-{[4-(trifluoromethyl)-1,3-benzothiazol-2-yl]-amino}-1,2-thiazole-4-carboxamide], for which the IC50 with HeLa-MaTu-ADR turned out to be 350 nM; with NCI-H460, 210 nM; in the assay with DU145, 600 nM; in the assay with Caco2 it was 430 nM; in the assay with B16F10, 430 nM.

Regarding `Cc1nsc(Nc2cnc3ccccc3n2)c1C(=O)Nc1ccc(F)c(F)c1` [Example 50, N-(3,4-Difluorophenyl)-3-methyl-5-(quinoxalin-2-ylamino)-1,2-thiazole-4-carboxamide], the IC50 in the assay with HeLa-MaTu-ADR was determined as 210 nM; in the assay on NCI-H460, 520 nM; in the assay on DU145 it was 410 nM; in the assay with Caco2 it was 270 nM; with B16F10, 300 nM.

Take `Cc1nsc(Nc2nc3c(C(F)(F)F)cccc3s2)c1C(=O)Nc1ccc(F)c(F)c1` [Example 51, N-(3,4-Difluorophenyl)-3-methyl-5-{[4-(trifluoromethyl)-1,3-benzothiazol-2-yl]-amino}-1,2-thiazole-4-carboxamide]: the IC50 was 370 nM in the assay with HeLa-MaTu-ADR; 280 nM with NCI-H460; 160 nM in the assay with DU145; 69 nM with Caco2; 470 nM in the assay on B16F10.

For `Cc1nsc(Nc2ccc(C#N)cn2)c1C(=O)Nc1ccc(Cl)c(F)c1` [Example 52, N-(4-Chloro-3-fluorophenyl)-5-[(5-cyanopyridin-2-yl)amino]-3-methyl-1,2-thiazole-4-carboxamide], the IC50 in the assay on HeLa-MaTu-ADR is 130 nM; with NCI-H460 it was 130 nM; in the assay with DU145 it was 310 nM; with Caco2, 190 nM; with B16F10, 230 nM.

As to `Cc1nsc(Nc2nc3c(C(F)(F)F)cccc3s2)c1C(=O)Nc1ccc(Cl)c(F)c1` [Example 53, N-(4-Chloro-3-fluorophenyl)-3-methyl-5-{[4-(trifluoromethyl)-1,3-benzothiazol-2-yl]amino}-1,2-thiazole-4-carboxamide], the IC50 with HeLa-MaTu-ADR is 310 nM; in the assay with NCI-H460, 520 nM; in the assay with DU145, 980 nM; with Caco2 it was 200 nM; with B16F10, 220 nM.

For the compound `Cc1nsc(Nc2cc(C#N)ccn2)c1C(=O)Nc1ccc(Cl)c(F)c1` [Example 54, N-(4-Chloro-3-fluorophenyl)-5-[(4-cyanopyridin-2-yl)amino]-3-methyl-1,2-thiazole-4-carboxamide], the IC50 was 650 nM in the assay with HeLa-MaTu-ADR; 210 nM with NCI-H460; 1200 nM in the assay on DU145; 1300 nM in the assay on Caco2; 860 nM in the assay on B16F10.

The record behind these values is patent US9682995B2, “Amino-substituted isothiazoles” (BAYER PHARMA AKTIENGESELLSCHAFT, priority 2013, dated 2017).
